Where two headings read alike, the source gives them in different places.

One experiment deals with T1, Human PMN Elastase (Homo sapiens, UniProt P08246).
T1 construct: Crude extract of human polymorphonuclear leukocytes (PMN) containing elastase activity; from tissue; host or cells: human polymorphonuclear leukocytes (crude extract)
T1 sequence (P08246 30-267): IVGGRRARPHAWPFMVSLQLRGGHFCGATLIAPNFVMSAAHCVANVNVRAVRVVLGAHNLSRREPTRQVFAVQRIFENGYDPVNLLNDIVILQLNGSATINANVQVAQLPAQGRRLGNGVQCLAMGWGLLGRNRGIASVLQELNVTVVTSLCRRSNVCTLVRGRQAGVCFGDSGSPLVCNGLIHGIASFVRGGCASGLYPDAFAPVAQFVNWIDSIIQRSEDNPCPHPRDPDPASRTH
Kind of experiment: Human PMN elastase inhibition (Boc-AAPAN hydrolysis, 410 mμ). Format: biochemical. As to conditions: 0.2 mM Boc-AAPAN, pH 7.5, crude human PMN extract; read-out: ID50 Human PMN Elastase (converted). How it is done:
N-tris (hydroxymethyl) methyl-2-aminoethane sulfonic acid
0.2 mM N-t-Box-Alanyl-Alanyl-Prolyl-Alanine-p-nitroanilide=Boc-AAPAN
To prepare substrate, the solid (m.w. 550) was first dissolved in 10.0 ml. DMSO. Buffer at pH 7.5 was then added to a final volume of 100 ml.
Crude extract of human polymorphonuclear leukocytes (PMN) containing elastase activity.
(§1) Inhibitors to be tested dissolved in DMSO just before use.
To 1.0 ml. of 0.2 mM Box-AAPAN in a cuvette, 0.01-0.1 ml. of DMSO with or without inhibitor was added. After mixing, a measurement was taken at 410 mμ to detect any spontaneous hydrolysis due to presence of test compound. 0.05 ml. of PMN extract was then added and the ΔOD/min at 410 mμ was measured and recorded. A Gilford 240 or Beckman DB-G spectrophotomer was used.
Results were obtained as % inhibition produced by test compound as represented by the % decrease in ΔOD/min. of a control. The ID50 was then derived from the % inhibition curve.
The elastase activity in the crude PMN extract may vary from one preparation to another. A control of each new batch is run and the volume added in the assay procedure is adjusted according to activity.

Another experiment concerns the target T2, Chymotrypsin (Bos taurus, UniProt P00766).
T2 construct: purchased Worthington
Kind of experiment: Chymotrypsin inhibition (Ac-AAPPhN hydrolysis, 410 mμ). Format: biochemical, bovine. How it is done: a-Chymotrypsin (Worthington, 3X crystallized, lyophilized) at 100 μg/ml in 0.001 M HCl (1 mg/ml by wt. diluted 1:10)
0.2 mM N-Acetyl-Alanyl-Alanyl-Prolyl-Phenylalanyl-p-nitroanilide=Ac-AAPPhN.To prepare substrate, the solid (M.W. 566) was first dissolved in 10.0 ml DMSO. Buffer at pH 7.5 was then added to a final volume of 100 ml.
as §1
To 1.0 ml of 0.2 mM Ac-AAPPhN in a cuvette, 0.01-0.05 ml of DMSO with or without inhibitor was added. After mixing, a measurement was taken at 410 mμ to detect any spontaneous hydrolysis due to the presence of test compound. 0.01 ml of α-chymotrypsin solution was then added and the ΔOD/min at […] was measured and recordeed. A Gilford 240 240 spectrophotometer was used.
Results were obtained as % inhibition produced by test compound as represented by the % decrease in ΔOD/min of a control. The ID50 was then derived from the % inhibition curve.

The target of experiment [1] is T3, Porcine Pancreatic Elastase (Sus scrofa, UniProt P00772).
T3 construct: purchased Worthington
Kind of experiment: Porcine pancreatic elastase inhibition (Boc-AAPAN hydrolysis, 410 mμ). To be noted: 0.2 mM Boc-AAPAN, pH 7.5, purified PPE; read-out: ID50 Porcine Pancreatic Elastase (converted). Format: biochemical.
Method: PORCINE PANCREATIC ELASTASE:
Solution of purified porcine pancreatic elastase (PPE) (Worthington)
To 1.0 ml. of 0.2 mM Box-AAPAN in a cuvette, 0.01-0.1 ml. of DMSO with or without inhibitor was added. After mixing, a measurement was taken at 410 mμ to detect any spontaneous hydrolysis due to presence of test compound. 0.05 ml. of PPE extract was then added and the ΔOD/min at 410 m° was measured and recorded. A Gilford 240 or Beckman DB-G spectrophotometer was used.
The elastase activity in the crude PPE extract may vary from one preparation to another. A control of each new batch is run, and the volume added in the assay procedure is adjusted according to activity.

Another experiment has as its target T4, Trypsin (Bos taurus, UniProt P00760).
T4 construct: purchased Worthington TRL
T4 sequence (P00760 24-246): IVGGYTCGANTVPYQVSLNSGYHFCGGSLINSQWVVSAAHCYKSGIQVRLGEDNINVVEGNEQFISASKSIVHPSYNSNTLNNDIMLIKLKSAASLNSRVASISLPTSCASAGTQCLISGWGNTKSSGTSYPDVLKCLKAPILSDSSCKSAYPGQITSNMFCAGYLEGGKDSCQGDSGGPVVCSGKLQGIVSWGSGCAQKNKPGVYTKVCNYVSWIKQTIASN
The experiment in a line: Trypsin inhibition (BAPA hydrolysis, 410 mμ). Format: biochemical, bovine.

Another experiment addresses T5, Human PMN Cathepsin G (Homo sapiens, UniProt P08311).
T5 construct: Purified extract of human polymorphonuclear leukocytes (PMN) containing chymotrypsin-like activity; from tissue; host or cells: human polymorphonuclear leukocytes (purified extract)
T5 sequence (P08311 21-255): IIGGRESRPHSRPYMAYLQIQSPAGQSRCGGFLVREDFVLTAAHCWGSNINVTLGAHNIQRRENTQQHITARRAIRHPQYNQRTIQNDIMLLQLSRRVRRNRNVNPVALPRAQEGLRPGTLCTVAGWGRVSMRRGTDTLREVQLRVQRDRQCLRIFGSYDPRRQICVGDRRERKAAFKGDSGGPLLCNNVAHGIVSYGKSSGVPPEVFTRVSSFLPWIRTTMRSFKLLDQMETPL
Kind of experiment: Human PMN cathepsin G inhibition (BTNP hydrolysis, 347.5 mμ). It is filed as biochemical. As to conditions: 0.2 mM BTNP, pH 6.5, purified human PMN extract; read-out: ID50 Human PMN Cathepsin G (converted).

A further experiment concerns Papain induced emphysema. To be noted: hamster; cited from earlier work.
Experiment [2] concerns trypsin, chymotrypsin, plasmin, kallikrein, elastase, and thrombin. To be noted: glycoprotein in human serum; cited from earlier work.
The subject of a further experiment is papain. To be noted: cited from earlier work.
The mark [3] stands for this setting: 0.2 mM Ac-AAPPhN, pH 7.5, α-chymotrypsin, read-out: ID50 Chymotrypsin (converted).
[4] abbreviates: 1.0 mM BAPA, pH 7.5, read-out: ID50 Trypsin (converted).

T3 sequence (P00772 27-266): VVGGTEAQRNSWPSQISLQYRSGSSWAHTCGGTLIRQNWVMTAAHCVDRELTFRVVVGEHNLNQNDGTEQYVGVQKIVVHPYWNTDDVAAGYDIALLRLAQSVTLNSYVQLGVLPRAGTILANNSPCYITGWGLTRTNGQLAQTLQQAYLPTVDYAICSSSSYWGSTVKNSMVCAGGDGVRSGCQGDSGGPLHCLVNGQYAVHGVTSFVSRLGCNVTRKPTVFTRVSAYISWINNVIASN
Method for Human PMN Cathepsin G: 0.05 M PIPES buffer [piperazine-N,N'-bis(2-ethanesulfonic acid), mono-sodium salt, monohydrate], pH 6.5.
0.2 mM t-Box-L-Tyrosine-p-Nitrophenyl ester=BTNP
Purified extract of human polymorphonuclear leukocytes (PMN) containing chymotrypsin-like activity.
To 1.0 ml of 0.2 mM BTNP in a cuvette, 0.01-0.1 ml of DMSO with or without inhibitor was added. After mixing, a measurement was taken at 347.5 mμ to detect any spontaneous hydrolysis due to the presence of test compound. 0.01 ml of PMN extract was then added and the ΔOD/min at 347.5 mμ was measured and recorded. A Gilford 240 or Beckman DB-G spectrophotometer was used.
To prepare substrate, 8.0 mg of solid (m.w. 402) was first dissolved in 10.0 ml DMSO. Buffer at pH 6.5 was then added to a final volume of 100 ml. Final DMSO concentration was 10%. Substrate prepared in this manner is stable for 3-4 hours at room temperature.
All activites were tested for reactivity with nitrophenol. The test is invalid if the test compound reacts with nitrophenol.

Consider `O=C1c2ccccc2S(=O)(=O)N1c1ccc([N+](=O)[O-])cc1[N+](=O)[O-]`, for which the IC50 at Human PMN Elastase is 2.86 µM; at Chymotrypsin, 1.43 µM; in experiment [1], 143 µM; on Trypsin, 143 µM.
`O=C1c2ccccc2S(=O)(=O)N1c1c(F)c(F)c(F)c(F)c1F`: the IC50 was 2.86 µM at Human PMN Elastase, 143 µM against Chymotrypsin, 143 µM in experiment [1] and 143 µM against Trypsin.
As to `N#Cc1cc([N+](=O)[O-])ccc1N1C(=O)c2ccccc2S1(=O)=O`, the IC50 was 3.04 µM on Human PMN Elastase; 0.607 µM at Chymotrypsin (setting [3]); 60.7 µM in experiment [1]; 45.6 µM at Human PMN Cathepsin G; 60.7 µM against Trypsin.
Take `O=C1c2ccccc2S(=O)(=O)N1c1ncccc1[N+](=O)[O-]`: the IC50 on Human PMN Elastase is 1.64 µM; on Chymotrypsin (setting [3]), 0.655 µM; in experiment [1], 65.5 µM; at Trypsin (setting [4]), 65.5 µM.
For `N#Cc1ccc(N2C(=O)c3ccccc3S2(=O)=O)nc1`, the IC50 on Human PMN Elastase was 10.5 µM; on Chymotrypsin (setting [3]), 59.6 µM.
With `N#Cc1ccc(N2C(=O)c3ccccc3S2(=O)=O)c(C#N)c1`, the IC50 was 4.85 µM on Human PMN Elastase; 3.23 µM at Chymotrypsin (setting [3]); 162 µM in experiment [1]; 162 µM at Human PMN Cathepsin G; 162 µM on Trypsin (setting [4]).
As for `O=C(c1ccco1)N1C(=O)c2ccccc2S1(=O)=O` [reference compound], the IC50 at Human PMN Elastase was 0.361 µM; at Chymotrypsin (setting [3]), 0.0721 µM; in experiment [1], 0.721 µM; at Trypsin (setting [4]) it was 1.8 µM.
As to `O=C(c1cccs1)N1C(=O)c2ccccc2S1(=O)=O` [reference compound], the IC50 is 0.341 µM at Human PMN Elastase, 0.682 µM at Chymotrypsin, 0.682 µM in experiment [1] and 0.0682 µM at Trypsin (setting [4]).
In the case of `CCC(CC)C(=O)N1C(=O)c2ccccc2S1(=O)=O` [reference compound], the IC50 on Human PMN Elastase was 0.355 µM; at Chymotrypsin (setting [3]), 0.142 µM; in experiment [1], 1.07 µM; at Trypsin (setting [4]), 3.55 µM.
In the case of `C=CC(=O)N1C(=O)c2ccccc2S1(=O)=O` [reference compound], the IC50 at Human PMN Elastase is 0.422 µM; on Chymotrypsin (setting [3]), 0.295 µM; in experiment [1], 0.843 µM; on Human PMN Cathepsin G it was 4.22 µM; at Trypsin (setting [4]), 1.69 µM.
As to `O=C1c2ccccc2S(=O)(=O)N1c1ccc([N+](=O)[O-])cc1` [reference compound], the IC50 on Human PMN Elastase was 164 µM; against Chymotrypsin it was 329 µM; in experiment [1], 329 µM; on Trypsin, 329 µM.
For “α1 -Antitrypsin: a glycoprotein in human serum”, the “inhibition of papain induced emphysema” value in the experiment on Papain induced emphysema was “inhibited”. In addition, in experiment [2], the inhibitory spectrum result is recorded as “wide inhibitory spectrum”. Also, in the experiment with papain, the inhibition of papain entry is listed as “not inhibited”.
